Assay results published in patent publication US20030104974A1, “Dual inhibitorsof PDE 7 and PDE 4” (priority 2001, published 2003).
Like-named read-outs stand apart in the source and are kept apart here.

Key:
[1] = target: T1, PDE7 (Homo sapiens, UniProt Q13946); assay: SPA assay for cAMP, PDE7 in Hut78 cell lysate treated with Zardaverine; assay type: biochemical; conditions: for IC50: Hut78 cell lysate, SPA
T1 construct: endogenous in cells; host or cells: Hut78 cells (crude lysate)
Procedure: Hut78 cells were grown in 10% FCS in Iscoves Modified Dulbecco's Medium (Gibco BRL-Life Technologies, Grand Island, N.Y.) with antibiotics. Cells were centrifuged and resuspended in four volumes of [40 mM Tris (pH 7.5)/50 μM EDTA/200 μM PMSF with a cocktail of Protease inhibitors (Boehringher Mannheim, Indianapolis, Ind.)] at 4 C. Cells were homogenized using a Virtis homogenizer, and the lysate was centrifuged twice for 15 min at 15,000×g. Glycerol was added to a final volume of 50% for storage at −20C.
(§1) Inhibition of PDE activity in Hut78 cell lysate was determined using an SPA specific for cAMP (Amersham Pharmacia Biotech, Buckinghamshire, UK) according to the manufacturers instructions with minor modifications. Enzyme assays were performed at room temperature in the presence of 50 mM Tris HCl, pH7.5, containing 8.3 mM MgCl2, 1.7 mM EGTA and 0.5 mg/mL BSA. Each assay was performed in a 100 μL reaction volume in 96 well microtitre plates containing the above buffer, 0.3 ul of Hut78 cell lysate treated with 2 uM Zardaverine to inhibit PDE3 and PDE4, 0.05 uCi of [5′,8-3H] Adenosine 3′,5′-cyclic phosphate as an ammonium salt for 20 min. The reaction was terminated by the addition of 50 μl PDE SPA beads (1 mg) water with 10 mM cold cAMP (Sigma, St. Louis Mo.). The reaction mix was allowed to settle for 20 minutes before counting in a Top Count-NXT scintillation counter (Packard BioScience, Meriden, Conn.). […] The following PDEs/activators and enzyme sources were used: PDE1, bovine (Sigma St Louis), calmodulin; PDE2, rat kidney, cGMP; PDE3, human platelet; PDE4, rat kidney; PDE5, human platelet, and PDE6, bovine retina.
(§2) The LPS human PBMC TNF production assay was performed as described above.

[2] = test system: PDE1; assay: SPA assay, PDE1 (3H-cyclic GMP substrate, calmodulin); assay type: biochemical; conditions: bovine PDE1, calmodulin
Procedure: as §1, §2

[3] = target: T2, PDE3 (Homo sapiens, UniProt Q14432); assay: SPA assay, PDE3 (human platelet); assay type: biochemical
T2 construct: PDE3, human platelet; from tissue; host or cells: human platelet
Procedure: as §1, §2

[4] = test system: PDE4; assay: SPA assay, PDE4 (rat kidney); assay type: biochemical
Procedure: as §1, §2

[5] = target: T3, PDE5 (Homo sapiens, UniProt O76074); assay: SPA assay, PDE5 (human platelet, 3H-cyclic GMP substrate); assay type: biochemical
T3 construct: PDE5, human platelet; from tissue; host or cells: human platelet
Procedure: as §1, §2

[6] = target: T4, PDE6 (Bos taurus, UniProt P11541+P23439); assay: SPA assay, PDE6 (bovine retina, 3H-cyclic GMP substrate); assay type: biochemical
T4 construct: PDE6, bovine retina; from tissue; host or cells: bovine retina
T4 sequence (P11541 2-856 limits assumed): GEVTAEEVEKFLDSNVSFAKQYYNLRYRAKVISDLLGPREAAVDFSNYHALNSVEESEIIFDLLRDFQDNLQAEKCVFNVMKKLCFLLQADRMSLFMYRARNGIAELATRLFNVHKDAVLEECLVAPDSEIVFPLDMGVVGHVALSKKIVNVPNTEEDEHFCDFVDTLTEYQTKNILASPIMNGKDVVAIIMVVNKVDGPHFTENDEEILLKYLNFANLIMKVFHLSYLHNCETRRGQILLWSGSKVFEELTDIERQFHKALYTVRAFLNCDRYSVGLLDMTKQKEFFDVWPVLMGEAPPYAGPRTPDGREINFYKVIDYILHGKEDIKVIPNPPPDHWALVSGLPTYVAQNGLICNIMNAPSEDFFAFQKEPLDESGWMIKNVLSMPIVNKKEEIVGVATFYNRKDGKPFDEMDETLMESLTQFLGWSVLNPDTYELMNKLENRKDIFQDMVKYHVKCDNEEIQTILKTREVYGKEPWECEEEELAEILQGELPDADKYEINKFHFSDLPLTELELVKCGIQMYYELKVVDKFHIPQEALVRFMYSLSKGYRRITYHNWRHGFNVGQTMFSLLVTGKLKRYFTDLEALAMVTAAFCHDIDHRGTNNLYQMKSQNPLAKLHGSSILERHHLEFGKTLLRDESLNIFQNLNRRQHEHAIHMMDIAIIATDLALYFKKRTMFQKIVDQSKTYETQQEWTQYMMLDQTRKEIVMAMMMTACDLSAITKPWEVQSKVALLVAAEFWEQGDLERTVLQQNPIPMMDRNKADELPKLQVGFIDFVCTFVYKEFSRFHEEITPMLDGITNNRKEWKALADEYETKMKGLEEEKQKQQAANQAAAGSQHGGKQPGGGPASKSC
T4 sequence (P23439 2-850 limits assumed): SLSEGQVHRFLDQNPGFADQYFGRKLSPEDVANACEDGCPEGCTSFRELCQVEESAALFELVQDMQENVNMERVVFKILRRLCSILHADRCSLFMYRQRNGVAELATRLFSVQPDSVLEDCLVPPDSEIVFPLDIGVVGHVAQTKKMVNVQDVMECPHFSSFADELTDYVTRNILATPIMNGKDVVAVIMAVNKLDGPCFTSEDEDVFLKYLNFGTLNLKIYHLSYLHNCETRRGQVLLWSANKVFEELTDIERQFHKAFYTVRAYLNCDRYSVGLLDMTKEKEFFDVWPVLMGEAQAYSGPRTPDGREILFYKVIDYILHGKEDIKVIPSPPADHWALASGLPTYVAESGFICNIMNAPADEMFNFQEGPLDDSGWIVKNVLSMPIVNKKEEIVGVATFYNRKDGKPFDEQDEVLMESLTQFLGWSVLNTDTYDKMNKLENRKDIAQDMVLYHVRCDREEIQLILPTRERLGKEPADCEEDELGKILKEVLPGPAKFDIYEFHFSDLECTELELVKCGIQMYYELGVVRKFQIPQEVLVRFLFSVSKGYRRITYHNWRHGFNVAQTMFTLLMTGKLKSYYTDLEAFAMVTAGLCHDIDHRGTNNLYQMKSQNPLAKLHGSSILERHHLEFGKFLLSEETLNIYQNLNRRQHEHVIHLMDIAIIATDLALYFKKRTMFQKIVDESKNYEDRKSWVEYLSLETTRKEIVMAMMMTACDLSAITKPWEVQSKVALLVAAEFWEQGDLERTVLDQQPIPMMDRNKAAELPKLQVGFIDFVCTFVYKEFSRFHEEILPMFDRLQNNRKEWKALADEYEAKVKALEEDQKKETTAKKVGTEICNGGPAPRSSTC
Procedure: as §1, §2

[7] = Pharmacokinetic data in mice for Example F1 and rolipram; assay type: in vivo; conditions: for Cmax: mouse, plasma
[8] = test system: Lipopolysaccharide (LPS) induced tumor necrosis factor (TNF) production; assay: LPS induced TNF production in mice (Examples I-1, I-2); assay type: in vivo; conditions: for reduction in serum TNF: Example I-1; for inhibited TNF production: Example I-2
Procedure: Mice were exposed to lipopolysaccharide to induce production of tumor necrosis factor as described by Cornwell, et. al. (Lipopolysaccharide, but not lethal infection, releases tumor necrosis factor in mice. Cornwell, R. D.; Golenbock, D. T.; Proctor, R. A. Adv.; Exp. Med. Biol. (1990), 256(Endotoxin), 585-8.). The mice were divided in to groups of eight animals each. All animals received an intraperitoneal (IP) injection of 50 μg/kg of LPS. The vehicle control group of animals received 0.2 mL of a vehicle of tween80 (5%), 95% ethanol (5%) and water 90%, sixty minutes prior to administration of LPS, and an IP injection of 0.2 mL of water fifteen minutes prior to administration of LPS. […] A group of mice (F1 group) were administered 0.2 mL of a vehicle of tween80 (5%), 95% ethanol (5%) and water 90%, sixty minutes prior to administration of LPS, and Example F1, at a dose of 7.5 mg/kg, IP in water, fifteen minutes prior to administration of LPS. […] A group of mice (dexamethasone group) were administered a 5 mg/kg dose of dexamethasone in a vehicle of tween80 (5%), 95% ethanol (5%) and water 90%, sixty minutes prior to administration of LPS, and 0.2 mL of water IP, fifteen minutes prior to administration of LPS.
Cilomilast inhibited TNF production by 56% (p<0.05). […] Finally the dexamethasone control inhibited TNF production 94%.

[9] = test system: LPS human PBMC TNF production; assay: LPS human PBMC TNF production assay; assay type: cell-based; conditions: LPS 6.25 ng/ml, 4 h
Procedure: Peripheral blood mononuclear cells (PBMC) were isolated from whole blood by density gradient centrifugation over Lymphoprep, 1.077. Cells were plated into 96 well U-bottom plates at 2.5×10^5 cells/well in 10% FBS RPMI 1640 (Life Technologies/Gibco-BRL) containing 10 ug/ml anti-CD3 (G19-4, Bristol-Myers Squibb P.R.I., Princeton, N.J.) and lug/ml anti-CD28 (9.3, Bristol-Myers Squibb P.R.I.) in the presence and absence of inhibitors. DMSO (used as a solvent for inhibitors) was added to the medium at 0.1% final concentration. The total volume per well was 200 μL. Cells were incubated at 37 C. 5% CO2 for 3 days, at which time 0.5 μCi of ^3H-thymidine was added to each well. Six hours following the addition of ^3H-thmidine, the plates were harvested onto filter plates, 30 ul EcoLite scintillant (ICN, Costa Mesa, Calif.) was added per well, and plates read on a Top Count-NXT scintillation counter.
The ability of compounds to inhibit the production and secretion of TNFα from leukocytes was performed using either PBMC (obtained as described above) or the THP-1 cell line as a source of monocytes. Compounds were diluted in RPMI 1640 supplemented with 10% FBS and DMSO at a final concentration of 0.2%. […] Soluble TNFα was detected by ELISA developed by R&D Systems (Minneapolis, Minn.) according to the manufacturers instructions. […]

[10] = mice, F1 30 mg/kg IP, rolipram 10 mg orally

T1 sequence (Q13946 whole entry): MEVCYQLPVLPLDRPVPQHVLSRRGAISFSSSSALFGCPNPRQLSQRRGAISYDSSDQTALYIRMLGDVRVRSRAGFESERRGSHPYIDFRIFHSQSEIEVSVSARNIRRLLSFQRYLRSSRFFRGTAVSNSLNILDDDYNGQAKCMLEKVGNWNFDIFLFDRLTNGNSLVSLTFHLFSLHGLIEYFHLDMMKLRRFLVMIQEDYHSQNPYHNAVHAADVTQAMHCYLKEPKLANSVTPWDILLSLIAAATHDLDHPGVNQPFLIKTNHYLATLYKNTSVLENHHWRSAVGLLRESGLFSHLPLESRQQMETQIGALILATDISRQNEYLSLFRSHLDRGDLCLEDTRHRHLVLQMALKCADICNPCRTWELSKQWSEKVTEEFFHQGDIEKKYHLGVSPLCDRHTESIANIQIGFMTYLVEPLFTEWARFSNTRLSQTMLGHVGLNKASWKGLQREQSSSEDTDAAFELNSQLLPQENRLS
T2 sequence (Q14432 whole entry): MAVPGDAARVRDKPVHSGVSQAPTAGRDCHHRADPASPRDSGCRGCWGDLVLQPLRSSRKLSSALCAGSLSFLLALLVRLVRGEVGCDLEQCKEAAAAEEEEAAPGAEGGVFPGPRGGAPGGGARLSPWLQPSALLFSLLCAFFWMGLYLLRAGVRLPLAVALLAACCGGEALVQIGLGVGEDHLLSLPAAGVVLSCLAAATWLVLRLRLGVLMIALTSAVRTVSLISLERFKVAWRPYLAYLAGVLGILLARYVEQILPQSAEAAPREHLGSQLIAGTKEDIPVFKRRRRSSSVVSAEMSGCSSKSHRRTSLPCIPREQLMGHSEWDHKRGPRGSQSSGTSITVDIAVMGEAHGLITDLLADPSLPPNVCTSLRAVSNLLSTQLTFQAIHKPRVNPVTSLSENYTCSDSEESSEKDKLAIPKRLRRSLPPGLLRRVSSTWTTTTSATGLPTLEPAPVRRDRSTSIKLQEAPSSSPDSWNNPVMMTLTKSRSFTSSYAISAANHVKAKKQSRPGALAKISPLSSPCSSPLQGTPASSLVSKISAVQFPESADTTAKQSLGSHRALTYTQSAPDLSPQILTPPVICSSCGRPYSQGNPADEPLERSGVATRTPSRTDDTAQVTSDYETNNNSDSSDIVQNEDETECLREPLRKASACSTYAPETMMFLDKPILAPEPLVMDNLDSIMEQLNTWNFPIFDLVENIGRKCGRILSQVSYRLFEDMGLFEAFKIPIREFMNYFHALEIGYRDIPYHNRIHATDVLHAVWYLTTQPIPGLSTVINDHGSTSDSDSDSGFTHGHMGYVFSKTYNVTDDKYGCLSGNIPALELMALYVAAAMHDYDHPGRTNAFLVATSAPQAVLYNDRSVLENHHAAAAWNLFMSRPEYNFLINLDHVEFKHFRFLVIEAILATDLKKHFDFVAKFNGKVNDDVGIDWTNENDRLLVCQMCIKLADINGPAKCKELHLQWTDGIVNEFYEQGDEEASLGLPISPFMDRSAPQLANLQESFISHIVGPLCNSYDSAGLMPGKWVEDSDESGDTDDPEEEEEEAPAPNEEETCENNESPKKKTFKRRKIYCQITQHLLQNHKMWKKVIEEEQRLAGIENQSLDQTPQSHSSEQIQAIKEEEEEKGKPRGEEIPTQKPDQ

For CCOC(=O)c1sc(Nc2nc(NCc3cc(OC)c(OC)c(OC)c3)cc(N3CCC(N(C)C)CC3)n2)nc1C [Example F1, 2-[[4-[4-(Dimethylamino)-1-piperidinyl]-6-[[(3,4,5-trimethoxphenyl)methyl]amino]-2-pyrimidinyl]amino]-4-methyl-5-thiazolecarboxylic Acid, Ethyl Ester], the IC50 [1] was 0.03 µM, the “selective for PDE7 over PDE4” value ([1]; ratio of PDE4 and PDE7 IC50) was 100 fold and the IC50 [2] was 4.3 µM. For the same molecule, the IC50 [3] was 32 µM, the IC50 [4] was 3 µM and the IC50 [5] was 2.8 µM. For the same molecule, the IC50 [6] was 7.5 µM, the “plasma concentration of F1 compared with its PDE4 IC50” value ([7]; mice, F1 30 mg/kg) was “does not reach the PDE4 IC50” and the “change of Cmax of F1 by co-administration of rolipram” value [7, 10] was “essentially unchanged”. For the same molecule, the Cmax ([7]; mice, F1 30 mg/kg IP alone, read-out: Cmax, F1) was 2200 nM and the “reduction in serum TNF” value ([8]; F1 7.5 mg/kg IP 15 min prior to LPS 50 μg/kg IP, vs vehicle) was 52%.
CCOC(=O)c1sc(Nc2nc(N3CCC(O)CC3)cc(N3CCC(O)CC3)n2)nc1C [Example F2, 2-[4,6-Bis-(4-hydroxy-piperidin-1-yl)-pyrimidin-2-ylamino]-4-methyl-thiazole-5-carboxylic Acid Ethyl Ester] showed an IC50 [1] of 0.06 µM, an IC50 [2] of 4.8 µM and an IC50 [3] of 20 µM. The IC50 [4] was 3.2 µM, the IC50 [5] was 0.72 µM and the IC50 [6] was 0.73 µM. The IC50 [9] was > 25 µM and the “inhibited TNF production” value ([8]; F2 30 mg/kg, not statistically significant) was 33.7%.
With COc1ccc([C@]2(C#N)CC[C@@H](C(=O)O)CC2)cc1OC1CCCC1 [cilomilast, reference compound] the IC50 [1] was > 50 µM, the IC50 [2] was 3.4 µM and the IC50 [3] was > 10 µM. The IC50 [4] was 0.03 µM, the IC50 [5] was > 10 µM and the IC50 [9] was 0.43 µM. For the same molecule, the “inhibited TNF production” value ([8]; cilomilast 1 mg/kg) was 56%.
For C[C@@H]1C[C@H]2[C@@H]3CCC4=CC(=O)C=C[C@]4(C)[C@@]3(F)[C@@H](O)C[C@]2(C)[C@@]1(O)C(=O)CO [dexamethasone], the “reduction in serum TNF” value ([8]; dexamethasone 5 mg/kg 60 min prior to LPS) was 93% and the “inhibited TNF production” value ([8]; dexamethasone control) was 94%.
For COc1ccc(C2CNC(=O)C2)cc1OC1CCCC1 (centres unmarked) [rolipram, reference compound], the IC50 [1] was > 10 µM, the “Cmax of Rolipram reduced by a factor by co-administration with F1” value [7, 10] was 3 factor and the Cmax ([7]; po, 10 mg) was 290 nM. The “reduction in serum TNF” value ([8]; rolipram 5 mg/kg oral 60 min prior to LPS 50 μg/kg IP, vs vehicle) was 54%.
